Legend:
Assay in all cases: relative IC50 (inflection point of fitted viability curve, relative to fitted max inhibition); higher = less sensitive
Conditions in all cases: 72 h
DERL-7 (IL-2 2.5 ng/mL) = system: DERL-7 (IL-2 2.5 ng/mL)
Experimental: (§1)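 Drug sensitivity and resistance testing: 5 concentrations over a 10,000-fold range, 72 h at 37 °C, viability by CellTiter-Glo normalised to DMSO and benzethonium chloride controls. IC50 is the inflection point of a logistic fit (min fixed at 0, max fitted), so it is relative to the fitted maximal inhibition. Kept only where fitted max inhibition is at least 50%.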

KAI3 (IL-2 2.5 ng/mL) = system: KAI3 (IL-2 2.5 ng/mL)
Experimental: as §1

KHYG-1 (IL-2 2.5 ng/mL) = system: KHYG-1 (IL-2 2.5 ng/mL)
Experimental: as §1

NK-92 (IL-2 2.5 ng/mL) = system: NK-92 (IL-2 2.5 ng/mL)
Experimental: as §1

NKL (IL-2 2.5 ng/mL) = system: NKL (IL-2 2.5 ng/mL)
Experimental: as §1

[1] = system: normal primary NK cells, pool 2 (3 donors) (IL-2 2.5 ng/mL)
Experimental: as §1

[2] = system: normal primary NK cells, pool 3 (3 donors) (IL-2 2.5 ng/mL)
Experimental: as §1

IMC-1 (IL-2 20 ng/mL) = system: IMC-1 (IL-2 20 ng/mL)
Experimental: as §1

NK-YS (IL-2 2.5 ng/mL) = system: NK-YS (IL-2 2.5 ng/mL)
Experimental: as §1

SNK-6 (IL-2 2.5 ng/mL) = system: SNK-6 (IL-2 2.5 ng/mL)
Experimental: as §1

YT (IL-2 2.5 ng/mL) = system: YT (IL-2 2.5 ng/mL)
Experimental: as §1

[3] = system: normal primary NK cells, pool 1 (3 donors) (IL-2 2.5 ng/mL)
Experimental: as §1

[4] = system: normal primary NK cells, pool 1 (3 donors), resting (IL-2 0 ng/mL)
Experimental: as §1

Row | SMILES | relative IC50 (DERL-7 (IL-2 2.5 ng/mL)) | relative IC50 (KAI3 (IL-2 2.5 ng/mL)) | relative IC50 (KHYG-1 (IL-2 2.5 ng/mL)) | relative IC50 (NK-92 (IL-2 2.5 ng/mL)) | relative IC50 (NKL (IL-2 2.5 ng/mL)) | relative IC50 [1] | relative IC50 [2] | relative IC50 (IMC-1 (IL-2 20 ng/mL)) | relative IC50 (NK-YS (IL-2 2.5 ng/mL)) | relative IC50 (SNK-6 (IL-2 2.5 ng/mL)) | relative IC50 (YT (IL-2 2.5 ng/mL)) | relative IC50 [3] | relative IC50 [4]
1 | CN1CCN(c2nc(C3=C(c4c[nH]c5ccccc45)C(=O)NC3=O)c3ccccc3n2)CC1 [Sotrastaurin] | 1080 nM | 1620 nM | 1800 nM | 1690 nM | 499 nM | – | – | – | – | – | – | – | –
2 | O=C(Nc1cc(Cl)cc2c1[nH]c1cnccc12)c1cccnc1 [PS-1145] | – | 1650 nM | – | – | – | – | – | – | – | – | – | – | –
3 | CC(C)(C)c1nc(-c2cccc(NS(=O)(=O)c3c(F)cccc3F)c2F)c(-c2ccnc(N)n2)s1 [Dabrafenib] | – | – | 72.1 nM | > 2500 nM | > 2500 nM | > 2500 nM | > 2500 nM | – | – | – | – | – | –
4 | CC[C@]1(O)C[C@H]2CN(CCc3c([nH]c4ccccc34)[C@@](C(=O)OC)(c3cc4c(cc3OC)N(C=O)[C@H]3[C@@](O)(C(=O)OC)[C@H](OC(C)=O)[C@]5(CC)C=CCN6CC[C@]43[C@@H]65)C2)C1 [Vincristine] | 3.38 nM | 7.9 nM | 3.14 nM | 9.88 nM | 2.9 nM | – | – | 3.41 nM | 5.45 nM | 4.74 nM | 3.6 nM | – | –
5 | NS(=O)(=O)OC[C@@H]1C[C@@H](n2ccc3c(N[C@H]4CCc5ccccc54)ncnc32)C[C@@H]1O [Pevonedistat] | 430 nM | 48.7 nM | 69 nM | 633 nM | 448 nM | 449 nM | 335 nM | 107 nM | 507 nM | 39.7 nM | 55.1 nM | 156 nM | –
6 | CC(C)n1cnc2c(NCCc3ccc(O)cc3)nc(-c3csc4ccccc34)nc21 [StemRegenin 1] | 112 nM | 3180 nM | 2450 nM | 1180 nM | 1620 nM | 3420 nM | – | – | – | 3860 nM | 2530 nM | – | 1900 nM
7 | N#CC1(c2ccc(NC(=O)c3cccnc3NCc3ccncc3)cc2)CCCC1 [Apatinib] | – | – | – | 1710 nM | > 10000 nM | > 10000 nM | – | – | – | – | – | – | –
8 | O=C(O)c1ccc(-c2c[nH]c3ncc(-c4ccccc4)cc23)cc1C1CCCC1 | 2820 nM | 307 nM | 1490 nM | 2330 nM | 1400 nM | – | – | 3040 nM | 1460 nM | – | – | – | –
9 | O=S(=O)(c1cccc2cnccc12)N1CCCNCC1 [Fasudil] | – | 6870 nM | – | – | – | 10900 nM | 15900 nM | – | – | – | 8760 nM | 8170 nM | –
10 | CC[C@H](CC#N)OC(=O)N[C@@H](C)c1cccc(NC(=O)Nc2ccc(-c3cnco3)c(OC)c2)c1 [AVN944] | 104 nM | 117 nM | 103 nM | 166 nM | 117 nM | – | – | 622 nM | 103 nM | 67.7 nM | 138 nM | – | 2170 nM
11 | CC[C@H](C)C(=O)O[C@H]1C[C@@H](C)C=C2C=C[C@H](C)[C@H](CC[C@@H]3C[C@@H](O)CC(=O)O3)[C@H]21 [Lovastatin] | – | – | – | – | 3520 nM | > 10000 nM | > 10000 nM | – | 1940 nM | – | – | – | –
12 | Cn1c(=O)n(-c2ccc(C(C)(C)C#N)cc2)c2c3cc(-c4cnc5ccccc5c4)ccc3ncc21 [Dactolisib] | 9.68 nM | 17.3 nM | 48 nM | 15 nM | 10.4 nM | 31.8 nM | – | 198 nM | 26.1 nM | 40.5 nM | 40.9 nM | – | –
13 | C=CCn1c(=O)c2cnc(Nc3ccc(N4CCN(C)CC4)cc3)nc2n1-c1cccc(C(C)(C)O)n1 [MK1775] | 185 nM | 95.7 nM | 59.3 nM | 93.8 nM | 57.2 nM | – | – | 361 nM | 227 nM | 156 nM | 190 nM | – | –
14 | CO[C@H]1C[C@@H]2CC[C@@H](C)[C@@](O)(O2)C(=O)C(=O)N2CCCC[C@H]2C(=O)O[C@H]([C@H](C)C[C@@H]2CC[C@@H](OCCO)[C@H](OC)C2)CC(=O)[C@H](C)/C=C(\C)[C@@H](O)[C@@H](OC)C(=O)[C@H](C)C[C@H](C)/C=C/C=C/C=C/1C [Everolimus] | 0.94 nM | – | – | – | – | – | > 100 nM | > 100 nM | – | – | – | – | –
15 | O=C(NOCCO)c1ccc2cncn2c1Nc1ccc(I)cc1F [GDC-0623] | – | – | 25.6 nM | > 2500 nM | 22.1 nM | – | – | > 2500 nM | – | – | – | – | –
16 | C[C@]12O[C@H](C[C@]1(O)CO)n1c3ccccc3c3c4c(c5c6ccccc6n2c5c31)CNC4=O [Lestaurtinib] | 28.6 nM | 11.9 nM | 16 nM | 31.1 nM | 28.1 nM | 21.5 nM | 44.1 nM | 96.7 nM | 85 nM | 38.5 nM | 78.3 nM | 20.9 nM | –
17 | Cn1c(Nc2ccc(C(F)(F)F)cc2)nc2cc(Oc3ccnc(-c4ncc(C(F)(F)F)[nH]4)c3)ccc21 [RAF265] | – | – | – | 175 nM | – | – | – | – | – | – | – | – | 47.4 nM
18 | Cc1c(CN2CCN(C(=O)[C@H](C)O)CC2)sc2c(N3CCOCC3)nc(-c3cnc(N)nc3)nc12 [Apitolisib] | 204 nM | 457 nM | 1600 nM | 145 nM | 492 nM | 1320 nM | 2310 nM | – | 599 nM | – | 622 nM | 902 nM | –
19 | CC(C)Cn1cnc2c(N)nc3ccccc3c21 [Imiquimod] | – | – | – | – | – | – | – | – | – | 89.6 nM | – | – | –
20 | Oc1nc(-c2ccc(C(F)(F)F)cc2)nc2c1CSCC2 [XAV-939] | – | – | – | – | – | – | – | – | – | 968 nM | – | – | > 10000 nM
21 | CC(C)(C)NC(=O)[C@H]1CC[C@H]2[C@@H]3CC[C@H]4NC(=O)C=C[C@]4(C)[C@H]3CC[C@]12C [Finasteride] | – | – | – | – | – | – | – | – | – | > 10000 nM | – | – | –
22 | CCn1c(C(=O)N(C2CC2)C2CC2)cc2c3c(ncn3C)c(Nc3cc(C)n(C)n3)nc21 | 1630 nM | 180 nM | 1820 nM | 1980 nM | 797 nM | – | – | – | – | – | – | – | –
23 | Cc1cc2c(F)c(Oc3ncnn4cc(OC[C@@H](C)O)c(C)c34)ccc2[nH]1 [Brivanib] | – | – | > 1000 nM | > 1000 nM | > 1000 nM | > 1000 nM | > 1000 nM | > 1000 nM | – | – | > 1000 nM | – | –

Reference: the supplement of paper PMC5908809
